Test results taken from patent publication US7435744B2, “Piperidine derivatives as NMDA receptor antagonists” (Gedeon Richter Vegyeszeti Gyar RT, priority 2001, dated 2008).
Where two headings read alike, the source gives them in different places.

What was measured:
NR2B subunit = target: T1, NR2B subunit (Rattus norvegicus, UniProt P35439+Q00960); experiment: [3H]-Ro 25,6981 binding assay on rat cerebral membranes
T1 construct: from tissue; host or cells: forebrain membranes of male Wistar rats
Description: Determining Binding of Compounds to NR2B Subunit by [^3H]-Ro 25,6981 Binding Assay
Briefly, membranes are isolated from the forebrain of male Wistar rats. They are incubated in the presence and absence of test compound for 2 hours at room temperature. […] The applied radioligand (^3H-Ro-25,6981) concentration is 4 nM.
(§1) wherein for NMDA IC50—IC50 is determined by the intracellular Ca^2+-concentartion assay on cortical neurons; and for Ro-binding IC50—IC50 is determined by the [^3H]-Ro 25,6981 binding assay on rat cerebral membranes.

NMRI mice = experiment: Mouse formalin test (second phase) for in vivo efficacy; settings: p.o. 15 min before formalin, licking time 20 to 25 min after formalin, >20 = inhibition less than 50% at 20 mg/kg p.o.; for ED50: po
Description: Mouse Formalin Test for Measurement of In Vivo Efficacy
Injection of diluted formalin into the hind paw of rats or mouse is known to elicit a biphasic pain related behaviour measured as time spent by licking/biting of the injured paw. The second phase is generally defined as pain related events detected in the 15-60 min. time interval after formalin injection. It is known that NMDA receptors are involved in the second phase of response to formalin injection and this behavioural response is sensitive to blockade of NMDA receptors [Dickenson, A. and Besson J.-M. (Eds.): Chapter 1, pp. 6-7: Animal models of Analgesia; and Chapter 8, pp. 180-183: Mechanism of Central Hypersensitivity: Excitatory Amino Acid Mechanisms and Their Control—In Pharmacology of Pain. Springer-Verlag (Berlin) 1997.] Therefore, we performed the second phase of formalin test to characterise the efficacy of compounds in vivo. Inhibition of the second phase of response is considered to indicate an analgesic effect against chemically-induced persistent pain [Hunskaar, S., et al.: Formalin Test in Mice, a Useful Technique for Evaluating Mild Analgesics, Journal of Neuroscience Methods, 14 (1985) 69-76.] Male albino Charles River NMRI mice (20-25 g) were used. Prior to the experiment any solid food was withdrawn for 16 hours but the animals had free access to 20% glucose solution. The animals were allowed a 1 hour acclimatisation period spent in a glass cylinder (cc. 15 cm in diameter), then moved to an identical cylinder with a mirror placed behind to facilitate observation. The test substances were suspended in 5% tween-80 (10 ml per kg body weight). and administered orally by gavage 15 min before the formalin injection (20 μl of 1% formalin in 0.9% saline injected subcutaneously into the dorsal surface of the right hindpaw). The time spent by licking and biting of the injected paw was measured from 20 to 25 min. after the formalin injection.

[1] = target: T2, NMDA receptors (NR2B subunit containing) (Rattus norvegicus, UniProt P35439+Q00960); experiment: Functional NMDA antagonist potency: intracellular calcium measurement in primary cultures of rat cortical neurons (fluorimeter plate reader); format: cell-based
T2 construct: endogenous in cells; host or cells: primary neocortical neurons from 17 day old Charles River rat embryos, 4-7 days in vitro
Description: Assessing the Functional NMDA Antagonist Potency of Compounds in Primary Cultures of Rat Cortical Neurons Based on Measuring the Intracellular Calcium Concentration Using a Fluorimeter Plate Reader
It is known that during postnatal development the subunit composition of neuronal NMDA receptors is changing. […] According to data in the literature and to our own immunocytochemical examinations neuronal cells cultured for 4-7 days in vitro predominantly express the NR2B subunit, together with NR1 subunit. Therefore, functional test of NMDA antagonism in these cells reflects mainly an action on NR2B subunit containing receptors. Since NMDA receptors are known to be permeable to calcium ions upon excitation, the extent of NMDA receptor activation, and its inhibition by functional antagonists can be characterised by measuring the rise in the intracellular calcium concentration following agonist (NMDA) application onto the cells. Since there is very high sequence homology between rat and human NMDA receptors (99, 95, 97% for NR1, NR2A, and NR2B subunits, respectively), it is believed that there is little, if any, difference in their pharmacological sensitivity.
In: Protocols for Neural Cell Culture, eds: Fedoroff, S.; Richardson A., The Humana Press Inc., 13-38.] After isolation, the cells are plated onto standard 96-well microplates and the cultures are maintained in an atmosphere of 95% air-5% CO2 at 37° C. until testing.
The cultures are used for the intracellular calcium measurements after 4-7 days in vitro. […] Loading is stopped by washing twice with the solution used also during the measurement (140 mM NaCl, 5 mM KCl, 2 mM CaCl2, 5 mM HEPES [4-(2-hydroxyethyl)-1-piperazineethane-sulfonic acid], 5 mM HEPES-Na, 20 mM glucose, 10 μM glycine, pH=7.4). Then the test compound dissolved in the above solution (90 μl/well) is added. Intracellular calcium measurements are carried out with a plate reader fluorimeter. A rise is induced by application of 40 μM NMDA in Fluo-4-fluorescence that reflects the intracellular calcium concentration. Inhibitory potency of the test compound is assessed by measuring the reduction in the calcium elevation in the presence of different concentrations of the compound. After the measurement, a standard calibration procedure [Meth. Cell.
Inhibitory potency of a compound at a single concentration point is expressed as percent inhibition of the control NMDA response. Sigmoidal concentration-inhibition curves are fitted over the data and IC50 values are defined as the concentration that produces half of the maximal inhibition that could be achieved with the compound. Mean IC50 values are derived from at least three independent experiments.
as §1

[2] = rat forebrain membranes, 4 nM [3H]-Ro 25,6981, 2 hours at room temperature, read-out: Ro-binding IC50
[3] = rat cortical neurons 4-7 days in vitro, 40 μM NMDA, Fluo-4 intracellular Ca2+, read-out: NMDA IC50

T1 sequence (Q00960 27-1482, other chains not shown): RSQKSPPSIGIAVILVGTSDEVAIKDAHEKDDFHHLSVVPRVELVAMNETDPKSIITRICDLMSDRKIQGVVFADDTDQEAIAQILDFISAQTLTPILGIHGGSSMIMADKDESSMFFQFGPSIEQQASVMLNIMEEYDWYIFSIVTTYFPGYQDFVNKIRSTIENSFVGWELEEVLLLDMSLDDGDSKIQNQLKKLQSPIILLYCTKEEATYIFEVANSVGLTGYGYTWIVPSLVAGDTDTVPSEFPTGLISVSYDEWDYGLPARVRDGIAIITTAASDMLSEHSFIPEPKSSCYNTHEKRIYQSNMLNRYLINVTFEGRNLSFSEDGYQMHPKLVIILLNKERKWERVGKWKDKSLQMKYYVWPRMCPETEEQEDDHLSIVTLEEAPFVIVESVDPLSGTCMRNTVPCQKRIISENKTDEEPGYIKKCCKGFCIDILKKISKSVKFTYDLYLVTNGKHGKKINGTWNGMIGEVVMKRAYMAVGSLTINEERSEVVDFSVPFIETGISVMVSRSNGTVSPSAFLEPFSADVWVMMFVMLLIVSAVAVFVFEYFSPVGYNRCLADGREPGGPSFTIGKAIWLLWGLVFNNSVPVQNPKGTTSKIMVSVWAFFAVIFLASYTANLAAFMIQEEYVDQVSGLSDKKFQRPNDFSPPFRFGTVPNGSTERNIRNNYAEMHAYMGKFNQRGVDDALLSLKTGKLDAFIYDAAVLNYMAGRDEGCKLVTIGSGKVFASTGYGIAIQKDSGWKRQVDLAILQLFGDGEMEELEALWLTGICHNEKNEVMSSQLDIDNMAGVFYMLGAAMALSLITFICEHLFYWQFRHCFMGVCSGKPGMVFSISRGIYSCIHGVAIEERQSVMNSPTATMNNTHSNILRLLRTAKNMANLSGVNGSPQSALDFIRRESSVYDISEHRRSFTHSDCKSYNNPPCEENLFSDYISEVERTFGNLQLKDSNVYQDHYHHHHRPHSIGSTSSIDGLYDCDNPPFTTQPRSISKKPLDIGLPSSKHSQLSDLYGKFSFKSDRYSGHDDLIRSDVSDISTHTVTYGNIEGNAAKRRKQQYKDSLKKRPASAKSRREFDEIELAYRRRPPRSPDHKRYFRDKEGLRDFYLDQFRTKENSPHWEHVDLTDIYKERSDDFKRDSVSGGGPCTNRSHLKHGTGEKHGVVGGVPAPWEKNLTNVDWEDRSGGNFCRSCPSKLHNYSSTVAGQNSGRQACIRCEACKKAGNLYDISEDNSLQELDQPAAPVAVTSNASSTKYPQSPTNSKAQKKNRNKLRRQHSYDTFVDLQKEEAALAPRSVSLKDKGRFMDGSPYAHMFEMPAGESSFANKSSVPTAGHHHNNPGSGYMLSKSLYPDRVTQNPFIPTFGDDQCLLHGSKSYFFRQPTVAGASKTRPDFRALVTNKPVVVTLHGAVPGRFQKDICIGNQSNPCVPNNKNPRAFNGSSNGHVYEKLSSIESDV
T2 sequence (Q00960 27-1482, other chains not shown): as above

| Structure (SMILES) | ED50 (NMRI mice) | IC50 (NR2B subunit; [2]) | IC50 [1, 3] | other results |
| --- | --- | --- | --- | --- |
| O=c1[nH]c2ccc([S+]([O-])CCN3CCC(Cc4ccc(F)cc4)CC3)cc2o1 (centres unmarked) [CI-1041, 6-{2-[4-(4-fluoro-benzyl)-piperidin-1-yl]-ethanesulfinyl}-3H-benzooxazol-2-one, reference compound] | 5.3 mg/kg |  |  | IC50 (NR2B subunit): 4 nM; IC50 [1]: 6.6 nM |
| C[C@@H]([C@@H](O)c1ccc(O)cc1)N1CCC(O)(c2ccccc2)CC1 [CP 101,606, (1S,2S)-1-(4-hydroxyphenyl)-2-(4-hydroxy-4-phenylpiperidine-1-yl)-1-propanol, reference compound] | > 20 mg/kg |  |  |  |
| Cc1ccc(CC2(O)CCN(CCOc3ccc(O)cc3)CC2)cc1 [Co-101244, 1-[2-(4-hydroxyphenoxy)ethyl]-4-hydroxy-4-(4-methylbenzyl)piperidine, reference compound] | > 20 mg/kg | 3.3 nM | 23 nM |  |
| Oc1ccc(OCCN2CCC(Cc3ccc(F)cc3)CC2)cc1 [Co-111103, 1-[2-(4-hydroxyphenoxy)ethyl]-4-(4-fluorobenzyl)piperidine, reference compound] | > 20 mg/kg | 8.4 nM |  |  |
| O=C(CCN1CCC(Cc2ccc(F)cc2)CC1)c1ccc2[nH]c(=O)oc2c1 [EMD 95885, reference compound] |  | 7.2 nM | 35 nM | ED50 (mg/kg p.o.) (NMRI mice): 5.9 mg/kg |
| O=C1Cc2cc(NC(=O)C(=O)N3CCC(Cc4ccc(F)cc4)CC3)ccc2N1 [Example 1, 2-[4-(4-Fluoro-benzyl)-piperidin-1-yl]-2-oxo-N-(2-oxo-2,3-dihydro-1H-indol-5-yl)-acetamide] | 0.46 mg/kg |  |  |  |
| O=C(Nc1ccc2[nH]c(=O)[nH]c2c1)C(=O)N1CCC(Cc2ccc(F)cc2)CC1 [Example 2, 2-[4-(4-Fluoro-benzyl)-piperidin-1-yl]-2-oxo-N-(2-oxo-2,3-dihydro-1H-benzimidazol-5-yl)-acetamide] |  | 4.7 nM | 0.7 nM |  |
| O=C(Nc1ccc2[nH]c(=O)oc2c1)C(=O)N1CCC(Cc2ccc(F)cc2)CC1 [Example 3, 2-[4-(4-Fluoro-benzyl)-piperidin-1-yl]-2-oxo-N-(2-oxo-2,3-dihydro-benzoxazol-6-yl)-acetamide] | 6.9 mg/kg | 18 nM | 3.2 nM |  |
| O=C(Nc1ccc2oc(=O)[nH]c2c1)C(=O)N1CCC(Cc2ccc(F)cc2)CC1 [Example 4, 2-[4-(4-Fluoro-benzyl)-piperidin-1-yl]-2-oxo-N-(2-oxo-2,3-dihydro-benzoxazol-5-yl)-acetamide] |  | > 30000 nM | 4710 nM |  |
| O=C(Nc1ccc2[nH]c(=O)[nH]c2c1)C(=O)N1CCC(Cc2ccccc2)CC1 [Example 7, 2-(4-Benzyl-piperidin-1-yl)-2-oxo-N-(2-oxo-2,3-dihydro-1H-benzimidazol-5-yl)-acetamide] |  | 4.4 nM | 1.4 nM |  |
| O=C(Nc1ccc2[nH]c(=O)oc2c1)C(=O)N1CCC(Cc2ccccc2)CC1 [Example 8, 2-(4-Benzyl-piperidin-1-yl)-2-oxo-N-(2-oxo-2,3-dihydro-benzoxazol-6-yl)-acetamide] |  | 5.5 nM | 2.4 nM |  |
| CS(=O)(=O)Nc1cccc(NC(=O)C(=O)N2CCC(Cc3ccccc3)CC2)c1 [Example 12, 2-(4-Benzyl-piperidin-1-yl)-N-(3-methanesulfonylamino-phenyl)-2-oxo-acetamide] |  | 614 nM | 1010 nM |  |
| O=C1COc2cc(NC(=O)C(=O)N3CCC(Cc4ccccc4)CC3)ccc2N1 [Example 24, 2-(4-Benzyl-piperidin-1-yl)-2-oxo-N-(3-oxo-3,4-dihydro-2H-benzo [1,4]oxazin-7-yl)-acetamide] |  | 214 nM | 113 nM |  |
| O=C(Nc1ccc2[nH]c(=O)oc2c1)C(=O)N1CCC(Oc2ccc(Cl)cc2)CC1 [Example 31, 2-[4-(4-Chloro-phenoxy)-piperidin-1-yl]-2-oxo-N-(2-oxo-2,3-dihydro-benzoxazol-6-yl)-acetamide] | 4.4 mg/kg |  |  |  |
| Cc1ccc(CC2CCN(C(=O)C(=O)Nc3ccc4c(c3)CC(=O)N4)CC2)cc1 [Example 101, 2-[4-[4-Methyl-benzyl)-piperidin-1-yl]-2-oxo-N-(2-oxo-2,3-dihydro-1H-indol-5-yl)-acetamide] | 0.48 mg/kg |  |  |  |
| O=C(CN1CCC(Cc2ccccc2)CC1)Nc1ccc2c(c1)CC(=O)N2 [Example 143, 2-(4-Benzyl-piperidin-1-yl)-N-(2-oxo-2,3-dihydro-1H-indol-5-yl)-acetamide] |  | 29 nM | 164 nM |  |
| O=C(CN1CCC(Cc2ccccc2)CC1)Nc1ccc2[nH]c(=O)oc2c1 [Example 146, 2-(4-Benzyl-piperidin-1-yl)-N-(2-oxo-2,3-dihydro-benzoxazol-6-yl)-acetamide] |  | 1.7 nM | 6 nM |  |
| O=C(CN1CCC(Cc2ccccc2)CC1)Nc1ccc2[nH]ncc2c1 [Example 147, 2-(4-Benzyl-piperidin-1-yl)-N-(1H-indazol-5-yl)-acetamide] |  | 121 nM | 1330 nM |  |
| CC(C(=O)Nc1ccc2[nH]c(=O)oc2c1)N1CCC(Cc2ccccc2)CC1 (centres unmarked) [Example 161, 2-(4-Benzyl-piperidin-1-yl)-N-(2-oxo-2,3-dihydro-1H-benzoxazol-6-yl)-propionamide] | 2.4 mg/kg |  |  |  |
| O=C(CN1CCC(Cc2ccccc2)CC1)Nc1ccc(O)cc1 [Example 192, 2-(4-Benzyl-piperidin-1-yl)-N-(4-hydroxy-phenyl)-acetamide] | 17 mg/kg |  |  |  |
| O=C(CNc1ccc2[nH]c(=O)[nH]c2c1)N1CCC(Cc2ccc(F)cc2)CC1 [Example 197, 5-{2-[4-(4-Fluoro-benzyl)-piperidin-1-yl]-2-oxo-ethylamino}-1,3-dihydro-benzoimidazol-2-one] |  | 91 nM | 48 nM |  |
| O=C(CNc1ccc2[nH]ncc2c1)N1CCC(Cc2ccc(F)cc2)CC1 [Example 199, 1-[4-(4-Fluoro-benzyl)-piperidin-1-yl]-2-(1H-indazol-5-yl-amino)-ethanone] |  | 972 nM | 533 nM |  |
| C[C@@H](CN1CCC(Cc2ccccc2)CC1)[C@@H](O)c1ccc(O)cc1 [Ro 25.6981, R—(R*,S*)-1-(4-hydroxyphenyl)-2-methyl-3-[4-(phenylmethyl)piperidin-1-yl]-1-propanol, reference compound] | > 20 mg/kg |  |  | IC50 (NR2B subunit): 5.9 nM |
